Measurements reported in patent publication US9198425B2, “Herbicidally-effective sulfinyl aminobenzamides” (BAYER INTELLECTUAL PROPERTY GMBH, priority 2012, dated 2015).

How the values were obtained:
Assay in all cases: Pre-emergence herbicidal action
Type in all cases: in vivo
Pharbitis purpureum = conditions: dosage 320 g/ha
Source text: (§1) Seeds of monocotyledonous and dicotyledonous weed plants and crop plants are placed in wood-fiber pots in sandy loam and covered with soil. The inventive compounds formulated in the form of wettable powders (WP) or as emulsion concentrates (EC) are then applied to the surface of the covering soil as an aqueous suspension or emulsion at a water application rate of 600 to 800 l/ha (converted) with addition of 0.2% wetting agent. After the treatment, the pots are placed in a greenhouse and kept under good growth conditions for the test plants. The damage to the test plants is assessed visually after a test period of 3 weeks by comparison with untreated controls (herbicidal activity in percent (%): 100% action=the plants have died, 0% action=like control plants). For example, compounds No. 6-102, 6-014 and 6-058 at an application rate of 320 g/ha each show at least 80% efficacy against Abutilon theophrasti, Amaranthus retroflexus and Matricaria inodora.
(§2) In accordance with the conditions specified for pre-emergence testing of herbicidal efficacy against harmful plants, comparative tests were conducted between inventive compounds and compounds known from WO 2011035874 A1.

Stellaria media = conditions: dosage 320 g/ha
Source text: as §1, §2

Matricaria inodora = conditions: dosage 320 g/ha
Source text: as §1, §2

Avena fatua = conditions: Table C, dosage 320 g/ha
Source text: as §1, §2

Amaranthus retroflexus = conditions: dosage 320 g/ha
Source text: as §1, §2

Veronica persica = conditions: Table A, dosage 320 g/ha
Source text: as §1, §2

Abutilon theophrasti = conditions: dosage 320 g/ha
Source text: as §1, §2

Row | Structure (SMILES) | Herbicidal efficacy against PHBPU (Pharbitis purpureum; Table C) [%] | Herbicidal efficacy against STEME (Stellaria media; Table C) [%] | Herbicidal efficacy against MATIN (Matricaria inodora; Table C) [%] | Herbicidal efficacy against AVEFA (Avena fatua) [%] | Herbicidal efficacy against PHBPU (Pharbitis purpureum; Table A) [%] | Herbicidal efficacy against AMARE (Amaranthus retroflexus; Table A) [%] | Herbicidal efficacy against MATIN (Matricaria inodora; Table A) [%] | Herbicidal efficacy against VERPE (Veronica persica) [%] | Herbicidal efficacy against ABUTH (Abutilon theophrasti; Table A) [%] | Herbicidal efficacy against AMARE (Amaranthus retroflexus; Table B) [%] | Herbicidal efficacy against STEME (Stellaria media; Table B) [%] | Herbicidal efficacy against MATIN (Matricaria inodora; Table B) [%] | Herbicidal efficacy against ABUTH (Abutilon theophrasti; Table B) [%]
1 | Cc1nonc1NC(=O)c1ccc(Cl)c(N=S2(=O)CCOCC2)c1Cl | 100 | 90 | 100 | 70 |  |  |  |  |  |  |  |  | 
2 | CCS(=O)(CC)=Nc1c(Cl)ccc(C(=O)Nc2nonc2C)c1Cl |  |  |  |  | 80 | 90 | 90 | 90 | 80 |  |  |  | 
3 | Cc1nonc1NC(=O)c1ccc(Cl)c(N=S2(=O)CCCCC2)c1Cl |  |  |  |  |  |  |  |  |  | 60 | 70 | 90 | 90
4 | Cc1nonc1NC(=O)c1ccc(Cl)c(N(C)C)c1Cl [drawing 41] |  |  |  |  |  |  |  |  |  | 30 | 0 | 0 | 0
5 | Cc1nonc1NC(=O)c1ccc(Cl)c(N(C)C)c1Cl [drawing 39] |  |  |  |  | 10 | 30 | 0 | 40 | 0 |  |  |  | 
6 | Cc1nonc1NC(=O)c1ccc(Cl)c(N(C)C)c1Cl [drawing 43] | 10 | 0 | 0 | 0 |  |  |  |  |  |  |  |  | 
